Data from patent US6974820B2, “Methods for treating urinary incontinence and other disorders using trospium” (Bridge Pharma, Inc., priority 2002, dated 2005).
Like-named read-outs stand apart in the source and are kept apart here.

Legend:
[1] = molecular target: T1, CYP 2D6 (Homo sapiens, UniProt P10635)
[2] = test system: QTc interval of the ECG; test: Cardiac side effects: QTc interval of the ECG in anesthetized guinea pigs; details: for Prolongation of the QTc interval of the ECG (in words): intravenous infusion; for ΔQTc (%): intravenous infusion over 30 min
[3] = molecular target: T2, human recombinant muscarinic receptor M-1 (Homo sapiens, UniProt P11229); test: biochemical; format: binding
T2 construct: expressed in transfected cells; host or cells: SF9 insect cells (membranes)
T2 sequence (P11229 1-460): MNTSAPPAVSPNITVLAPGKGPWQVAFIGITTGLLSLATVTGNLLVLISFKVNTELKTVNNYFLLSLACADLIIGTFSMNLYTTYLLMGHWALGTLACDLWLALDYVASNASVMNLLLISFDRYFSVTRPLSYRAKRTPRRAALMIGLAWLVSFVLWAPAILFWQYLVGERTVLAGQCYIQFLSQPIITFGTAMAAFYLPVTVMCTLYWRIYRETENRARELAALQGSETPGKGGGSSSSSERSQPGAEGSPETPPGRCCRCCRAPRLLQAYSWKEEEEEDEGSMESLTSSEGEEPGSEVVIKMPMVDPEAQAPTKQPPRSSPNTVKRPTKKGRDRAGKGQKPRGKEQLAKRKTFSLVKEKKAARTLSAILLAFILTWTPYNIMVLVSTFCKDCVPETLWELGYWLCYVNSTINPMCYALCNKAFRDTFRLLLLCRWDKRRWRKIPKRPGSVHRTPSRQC

[4] = molecular target: T3, human recombinant muscarinic receptor M-4 (Homo sapiens, UniProt P08173); format: binding
T3 construct: expressed in transfected cells; host or cells: SF9 insect cells (membranes)
T3 sequence (P08173 1-479): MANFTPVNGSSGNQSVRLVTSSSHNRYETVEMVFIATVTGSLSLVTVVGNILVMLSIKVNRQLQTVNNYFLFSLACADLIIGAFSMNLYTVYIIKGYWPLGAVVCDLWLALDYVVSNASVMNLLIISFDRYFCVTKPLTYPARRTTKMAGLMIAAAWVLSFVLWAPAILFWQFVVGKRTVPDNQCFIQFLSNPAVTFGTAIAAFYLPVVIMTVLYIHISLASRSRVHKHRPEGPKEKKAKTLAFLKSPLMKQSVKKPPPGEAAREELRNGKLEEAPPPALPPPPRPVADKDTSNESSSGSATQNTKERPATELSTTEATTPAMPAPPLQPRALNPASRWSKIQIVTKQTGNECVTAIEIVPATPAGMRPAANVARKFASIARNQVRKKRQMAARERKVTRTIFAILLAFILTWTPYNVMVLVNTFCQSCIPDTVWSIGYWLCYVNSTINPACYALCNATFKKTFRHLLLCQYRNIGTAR

[5] = molecular target: T1, CYP 2D6; test: biochemical
[6] = molecular target: T4, human recombinant muscarinic receptor M-3 (Homo sapiens, UniProt P20309); test: biochemical; format: binding
T4 construct: expressed in transfected cells; host or cells: SF9 insect cells (membranes)
T4 sequence (P20309 whole entry): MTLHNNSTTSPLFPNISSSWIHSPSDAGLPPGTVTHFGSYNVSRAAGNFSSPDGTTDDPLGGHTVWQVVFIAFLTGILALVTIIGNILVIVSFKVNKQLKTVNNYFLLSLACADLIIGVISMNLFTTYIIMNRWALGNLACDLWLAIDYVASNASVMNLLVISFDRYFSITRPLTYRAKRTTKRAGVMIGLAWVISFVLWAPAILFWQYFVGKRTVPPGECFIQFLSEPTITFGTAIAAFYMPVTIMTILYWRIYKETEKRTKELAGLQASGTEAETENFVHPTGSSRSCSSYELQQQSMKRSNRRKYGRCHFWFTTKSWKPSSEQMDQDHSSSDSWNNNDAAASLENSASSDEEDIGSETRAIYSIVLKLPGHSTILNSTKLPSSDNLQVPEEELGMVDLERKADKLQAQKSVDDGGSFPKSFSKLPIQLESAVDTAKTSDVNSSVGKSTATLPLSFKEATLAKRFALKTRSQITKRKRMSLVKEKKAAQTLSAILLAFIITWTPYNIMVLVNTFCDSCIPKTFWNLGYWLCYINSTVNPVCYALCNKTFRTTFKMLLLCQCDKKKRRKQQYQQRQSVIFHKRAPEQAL

T1 sequence (P10635 whole entry, the tested form may be a part): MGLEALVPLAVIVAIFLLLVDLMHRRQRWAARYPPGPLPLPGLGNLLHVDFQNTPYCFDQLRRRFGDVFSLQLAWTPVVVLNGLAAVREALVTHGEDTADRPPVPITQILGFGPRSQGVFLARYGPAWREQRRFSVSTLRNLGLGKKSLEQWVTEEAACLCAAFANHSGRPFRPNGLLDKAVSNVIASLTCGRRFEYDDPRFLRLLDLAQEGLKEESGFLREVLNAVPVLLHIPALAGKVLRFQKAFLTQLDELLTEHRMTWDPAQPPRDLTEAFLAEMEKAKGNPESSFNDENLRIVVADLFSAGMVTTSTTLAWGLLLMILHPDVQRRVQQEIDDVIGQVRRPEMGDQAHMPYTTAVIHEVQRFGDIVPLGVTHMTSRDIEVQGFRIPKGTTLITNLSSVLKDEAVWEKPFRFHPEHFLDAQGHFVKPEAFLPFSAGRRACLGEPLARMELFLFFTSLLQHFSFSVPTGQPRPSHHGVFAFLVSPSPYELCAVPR

| Inhibition of CYP 2D6 isoenzyme metabolism (in words) [1] | Structure (SMILES) | Prolongation of the QTc interval of the ECG (in words) [2] | ΔQTc (%) [2] | Ki [3] [nM] | Ki ([4]; membranes of SF9 cells expressing human recombinant receptor, read-out: Affinity (negative logarithm of the dissociation constant Ki) M-4 (converted)) [nM] | IC50 [5] [nM] | Ki [4] [nM] | Ki [6] [nM] |
| --- | --- | --- | --- | --- | --- | --- | --- | --- |
| potently inhibit | CCN(CC)CC#CCOC(=O)C(O)(c1ccccc1)C1CCCCC1 (stereo not shown) [Oxybutynin] | statistically significant prolongation | +12 ± 2% | – | – | – | – | – |
| – | CC(CC(c1ccccc1)c1ccccc1)NC(C)(C)C (stereo not shown) [Terodiline] | statistically significant prolongation | +11 ± 1% | – | – | – | – | – |
| – | Cc1ccc(O)c([C@H](CCN(C(C)C)C(C)C)c2ccccc2)c1 [Tolterodine] | statistically significant prolongation | +16 ± 1% | 1.58 | 20 | – | – | – |
| – | O=C(O[C@H]1C[C@H]2CC[C@@H](C1)[N+]21CCCC1)C(O)(c1ccccc1)c1ccccc1 [Trospium, 3α-hydroxy-spiro[1αH,5αH-nortropane-8,1′-pyrrolidinium] chloride benzilate] | no effects | −2 ± 1% | 0.794 | – | ~20000 | 1 | 0.501 |
| – | CC(C)(C)c1ccc(C(O)CCCN2CCC(C(O)(c3ccccc3)c3ccccc3)CC2)cc1 (stereo not shown) [terfenadine] | caused QT-prolongation | – | – | – | – | – | – |
